Source: patent US12473377B2, “Antibody-ALK5 inhibitor conjugates and their uses” (Synthis Therapeutics, Inc., priority 2016, dated 2025)
Where two headings read alike, the source gives them in different places.

Key:
[1] = system: primary mouse CD4^+ T cells; test: MTS proliferation assay; assay type: cell-based; details: for IC50: Mus musculus, CD4+ T; for reversal of TGFβ-mediated inhibition of T cell proliferation (in words): mouse CD4^+ T cells, 1 nM TGF-β1
Procedure: Compounds A-D were tested to determine whether they could inhibit TGF-β signaling in primary mouse CD4^+ T cells.
Primary mouse CD4^+ T cells were isolated from the spleens of C57/B6 mice using the RoboSep™ cell isolation system (Stemcell Technologies). 0.5 μg/ml of hamster anti-mouse CD3e antibody (145-2C11; eBioscience) was coated onto a 96 well flat bottom plate overnight. 1×10^5 purified CD4^+ T cells were incubated with 1 μg/ml soluble hamster anti-mouse CD28 antibody (37.51, BD Biosciences), 1 nM TGF-β1 and 8-fold serial dilutions of Compounds A-D. After 72 hours, cell proliferation was measured using an MTS assay (Promega) in accordance with the manufacturer's instructions.

[2] = system: TGF-β-induced luciferase activity in HEK293T cells; test: TGF-β-induced SMAD luciferase reporter assay in HEK293T cells; assay type: cell-based; details: Homo sapiens, HEK-293T, 24 hours
Procedure: Compounds A-D were tested to determine whether they could inhibit TGF-β-induced luciferase activity in HEK293T cells in vitro.
30,000 HEK293T cells were seeded in a 96 well white flat bottom plate overnight. The next day 100 ng of a SMAD luciferase reporter plasmid per well was transfected into the cells using lipofectamine for 24 hours. The next day cells were treated with Compounds A-D and […] TGFβ for 24 hours. Luciferase activity was measured using the Dual-Glo® luciferase assay kit (Promega). The assay was run twice for Compounds A, B, and D, and three times for Compound C.

Mouse CTLL2 cells = test: CTLL2 proliferation assay (BrdU ELISA); assay type: cell-based
Procedure: Mouse CTLL2 cells were cultured at 1×10^5 cells/well in 0.2 ng/ml IL2. To each well as indicated 1 nM TGF-β, 1 μg/ml ADC, and/or 100 nM ALK5 inhibitor Compound C was added to the wells for 24 hours. Proliferation was quantitated via addition of the BrdU reagent (Abcam) to each well for another 12 hours and then analyzed by ELISA.

[3] = system: GzmB expression in primary CD8^+ T cells; test: Granzyme B expression assay; assay type: cell-based, mouse; details: 1 nM TGF-β, ADC1 at DARs 2-4, 4-6 and 6-8, flow cytometry
Procedure: Mouse CD3^+ T cells were purified from mouse spleens using the EasySep™ Mouse T cell isolation kit (negative selection) (Stemcell Technologies). CD3^+ T cells were activated as before using plate bound antiCD3e and soluble anti-CD28 for 48 hours. T cells were washed and re-plated in media with 5% serum plus 1 nM TGF-β−/+ADC.
Golgi stop reagent was added for the last 4 hours and then the cells were immunostained for surface CD8 (BD) and intracellular GzmB (eBioscience) and analyzed via flow cytometry. Granzyme B (GzmB) is a serine protease released by CD8^+ T cells to kill tumor cells. Thus, increased expression of GzmB is indicative of CD8^+ cytotoxic T cell activation.

[4] = system: Naïve CD4 T cells (iTreg FoxP3 expression); test: iTreg conversion assay; assay type: cell-based, mouse
Procedure: Naïve CD4 T cells were isolated from isolated mouse spleenocytes using a negative selection kit. The cell density was adjusted to 0.4×10^6 cells/ml, and 10 ng/ml of mouse IL-2, 20 ng/ml of TGF-β, and 1 μg/ml of soluble anti-CD28 was added to the cell suspension.
Anti-mouse CD3 antibody at 10 μg/ml was coated on a 24 well plate and incubated at 4° C. overnight. The antibody was then aspirated from the plate. 1 ml of the cell suspension was added to each well of the 24 well plate. ADC1 (DAR 4-6) at 3 μg/ml and 5 μg/ml, anti-transferrin receptor antibody, rat anti-mouse IgG2A isotype control ALK5 ADC, and ALK5 inhibitor Compound C at 100 nM and 1 μM were added to separate wells of the 24 well plate. The cells were then cultured for 72 hours. TfR expression was tested at 48 hours (data not shown). Cells were stained for FoxP3 (eBioscience FoxP3 staining buffer) and sorted by FACS at 72 hours.

[5] = Experiment 1, anti-CD3e/anti-CD28, 1 nM TGF-β1, 72 hours, read-out: Experiment 1 IC50
[6] = Experiment 2, anti-CD3e/anti-CD28, 1 nM TGF-β1, 72 hours, read-out: Experiment 2 IC50
[7] = Experiment 1, 100 μM TGFβ, read-out: Experiment 1 IC50
[8] = Experiment 2, 100 μM TGFβ, read-out: Experiment 2 IC50
[9] = Experiment 1, anti-CD3e/anti-CD28, 1 nM TGF-β1, 72 hours

| Molecule | IC50 [1, 5] | IC50 [1, 6] | reversal of TGFβ-mediated inhibition of T cell proliferation (in words) [1] | IC50 [2, 7] | IC50 [2, 8] | Experiment 1 IC50 [1, 9] | Experiment 2 IC50 ([1]; Experiment 2, anti-CD3e/anti-CD28, 1 nM TGF-β1, 72 hours) | inhibition of CTLL2 proliferation (Mouse CTLL2 cells; 1 nM TGF-β alone) | restoration of GzmB expression ([3]; listed as ALK5 compound) | restoration of GzmB expression ([3]; listed as free ALK5 inhibitor) | amount of iTreg generated ([4]; 100 nM free ALK5 inhibitor, 20 ng/ml TGF-β, 72 hours) | iTreg generation ([4]; 100 nM of free ALK5 inhibitor (FIG. 12 legend)) | IC50 ([2]; Experiment 3, 100 μM TGFβ, read-out: Experiment 3 IC50) | restoration of CTLL2 proliferation in presence of TGF-β (Mouse CTLL2 cells; 100 nM ALK5 inhibitor Compound C, 1 nM TGF-β, 24 hours) |
| --- | --- | --- | --- | --- | --- | --- | --- | --- | --- | --- | --- | --- | --- | --- |
| CNCCOc1ccc(-c2cc(-c3c[nH]nc3-c3ccccn3)ccn2)cc1 [Compound B, N-methyl-2-(4-(4-(3-(pyridin-2-yl)-1H-pyrazol-4-yl)pyridin-2-yl)phenoxy)ethan-1-amine] | 60 nM | 34 nM | reversed TGFβ-mediated inhibition of T cell proliferation | 51.8 nM | 11.3 nM | – | – | – | – | – | – | – | – | – |
| CCNC(=O)c1ccc2c(c1)NC(=O)/C2=C(\Nc1ccc(N(CCNC)S(C)(=O)=O)cc1)c1ccccc1 [Compound D, (Z)-N-ethyl-3-(((4-(N-(2-(methylamino)ethyl)methylsulfonamido)phenyl)amino)(phenyl)methylene)-2-oxoindoline-6-carboxamide] | – | – | an IC50 value was not obtained | 1070 nM | 1520 nM | Value not obtained | Value not obtained | – | – | – | – | – | – | – |
| TGF-β | – | – | – | – | – | – | – | approximately 60% | – | – | – | – | – | – |
| Cc1cccc(-c2nc(N)sc2-c2ccc3ncccc3n2)n1 [Compound A, 4-(6-methylpyridin-2-yl)-5-(1,5-naphthyridin-2-yl)thiazol-2-amine] | – | 153 nM | did not show consistent effects | 18.7 nM | 29.8 nM | Value not obtained | – | – | – | – | – | – | – | – |
| CNCCOc1ccc(-c2cc(-c3c[nH]nc3-c3cccc(C)n3)ccn2)cc1 [Compound C, N-methyl-2-(4-(4-(3-(6-methylpyridin-2-yl)-1H-pyrazol-4-yl)pyridin-2-yl)phenoxy)ethan-1-amine] | 20 nM | 33 nM | reversed TGFβ-mediated inhibition of T cell proliferation | 10.1 nM | 21.2 nM | – | – | – | restore GzmB expression | partially restores Granzyme B expression | modestly decreased the amount of iTreg generated | decreases iTreg generation | 13.2 nM | almost complete reversal of TGF-β inhibition and restoration of CTLL2 proliferation |
